In PubChem BioAssay AID270 (DTP/NCI, 2004) one finds T/C data, which are given here for 19 compounds.

Several values for one entry are separate records, joined by “and”; a condition that tells them apart may be missing. Equal values may be shown once. Records with an inconclusive call do not appear.

This assay relates to BDF1 mice, s.c. Lewis lung carcinoma, T/C %. As to the kind of experiment: NCI In Vivo Anticancer Drug Screen. Data for tumor model Lewis Lung Carcinoma (subcutaneous) in B6D2F1 (BDF1) mice. The gist of the method:
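Readout: survival or tumor size, expressed as treated (T) over vehicle control (C). Transplantable tumor implanted in mice; compound given to the treated group.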

[1] abbreviates: endpoint: mean tumor weight, dose: 10.0 mg/kg/injection, schedule: Q01DX011 (ip), vehicle: saline, higher = larger tumour.
Where [2] appears, read: endpoint: median survival time, dose: 6.25 mg/kg/injection, schedule: Q01DX009 (ip), vehicle: Klucel (hydroxypropylcellulose) (HPC), higher = longer survival.
The mark [3] stands for this setting: endpoint: median survival time, dose: 6.25 mg/kg/injection, schedule: Q01DX009 (ip), vehicle: saline, higher = longer survival.
The mark [4] stands for this setting: endpoint: mean tumor weight, dose: 200.0 mg/kg/injection, schedule: Q01DX011 (ip), vehicle: other, higher = larger tumour.

Consider `COc1ccc(CC2C(=O)NC(C)C(=O)N(C)C3C(=O)N(C)C(Cc4ccc(O)c(c4)Oc4ccc(cc4)C3O)C(=O)NC(C)C(=O)NC(C)C(=O)N2C)cc1` (stereo unspecified), for which the T/C was 96 % of control (endpoint: median survival time, dose: 0.25 mg/kg/injection, schedule: Q01DX009 (ip), vehicle: saline, higher = longer survival); 97 % of control (endpoint: median survival time, dose: 0.5 mg/kg/injection, schedule: Q01DX009 (ip), vehicle: saline, higher = longer survival); 113 % of control (endpoint: median survival time, dose: 1.0 mg/kg/injection, schedule: Q01DX009 (ip), vehicle: saline, higher = longer survival); 87 % of control (endpoint: median survival time, dose: 2.0 mg/kg/injection, schedule: Q01DX009 (ip), vehicle: saline, higher = longer survival).

Regarding `CN1CCCC1c1cccnc1` (stereo unspecified), the T/C reads like this: (endpoint: mean tumor weight, dose: 1.0 mg/kg/injection, schedule: Q01DX011 (ip), vehicle: carboxymethylcellulose (CMC), higher = larger tumour) 62 % of control; (endpoint: mean tumor weight, dose: 2.0 mg/kg/injection, schedule: Q01DX011 (ip), vehicle: carboxymethylcellulose (CMC), higher = larger tumour) 75 % of control; (endpoint: mean tumor weight, dose: 4.0 mg/kg/injection, schedule: Q01DX011 (ip), vehicle: carboxymethylcellulose (CMC), higher = larger tumour) 72 % of control.

As for `CC/C(C)=C1\OC(=O)C(C)C(O)C(Cc2cccnc2)NC(=O)C(NC(=O)c2ncccc2O)C(C)OC1=O` (stereo unspecified), the T/C runs as follows: (endpoint: median survival time, dose: 6.25 mg/kg/injection, schedule: Q01DX009 (ip), vehicle: saline with Tween-80, higher = longer survival) 92 % of control; (endpoint: median survival time, dose: 12.5 mg/kg/injection, schedule: Q01DX009 (ip), vehicle: saline with Tween-80, higher = longer survival) 98 % of control.

In the case of `O=C(O)CP(=O)(O)O`, the T/C is 105 % of control (endpoint: median survival time, dose: 4.0 mg/kg/injection, schedule: Q01DX009 (ip), vehicle: saline, higher = longer survival); 97 % of control (endpoint: median survival time, dose: 8.0 mg/kg/injection, schedule: Q01DX009 (ip), vehicle: saline, higher = longer survival); 106 % of control (endpoint: median survival time, dose: 16.0 mg/kg/injection, schedule: Q01DX009 (ip), vehicle: saline, higher = longer survival); 91 % of control (endpoint: median survival time, dose: 32.0 mg/kg/injection, schedule: Q01DX009 (ip), vehicle: saline, higher = longer survival); 87 % of control (endpoint: median survival time, dose: 64.0 mg/kg/injection, schedule: Q01DX009 (ip), vehicle: saline, higher = longer survival); 86 % of control (endpoint: median survival time, dose: 128.0 mg/kg/injection, schedule: Q01DX009 (ip), vehicle: saline, higher = longer survival).

Consider `NC(Cc1ccc(N(CCCl)CCCl)cc1)C(=O)O` (stereo unspecified), for which the T/C is, setting by setting: (endpoint: mean tumor weight, dose: 1.5 mg/kg/injection, schedule: Q01DX011 (ip), vehicle: carboxymethylcellulose (CMC), higher = larger tumour) 75 % of control; (endpoint: mean tumor weight, dose: 2.5 mg/kg/injection, schedule: Q01DX011 (ip), vehicle: saline, higher = larger tumour) 52 % of control; (endpoint: mean tumor weight, dose: 3.0 mg/kg/injection, schedule: Q01DX011 (ip), vehicle: carboxymethylcellulose (CMC), higher = larger tumour) 50 % of control; (endpoint: mean tumor weight, dose: 4.5 mg/kg/injection, schedule: Q01DX011 (ip), vehicle: carboxymethylcellulose (CMC), higher = larger tumour) 32 % of control; (endpoint: mean tumor weight, dose: 5.0 mg/kg/injection, schedule: Q01DX011 (ip), vehicle: saline, higher = larger tumour) 33 % of control; under setting [1], 3 % of control.

Consider `NC(=S)N/N=C\c1ncnc2ccccc12`, for which the T/C (endpoint: median survival time, dose: 1.6 mg/kg/injection, schedule: Q01DX009 (ip), vehicle: Klucel (hydroxypropylcellulose) (HPC), higher = longer survival) is 104 % of control; the T/C (endpoint: median survival time, dose: 3.12 mg/kg/injection, schedule: Q01DX009 (ip), vehicle: Klucel (hydroxypropylcellulose) (HPC), higher = longer survival) is 103 % of control; the T/C under setting [2] was 96 % of control and 108 % of control.

For `CC(=O)NNC(=O)c1ccccc1CO`, the T/C reads like this: (endpoint: median survival time, dose: 25.0 mg/kg/injection, schedule: Q01DX009 (ip), vehicle: saline with Tween-80, higher = longer survival) 95 % of control; (endpoint: median survival time, dose: 50.0 mg/kg/injection, schedule: Q01DX009 (ip), vehicle: saline with Tween-80, higher = longer survival) 95 % of control; (endpoint: median survival time, dose: 100.0 mg/kg/injection, schedule: Q01DX009 (ip), vehicle: saline with Tween-80, higher = longer survival) 98 % of control; (endpoint: median survival time, dose: 200.0 mg/kg/injection, schedule: Q01DX009 (ip), vehicle: saline with Tween-80, higher = longer survival) 93 % of control.

On to `c1ccc([As+](c2ccccc2)(c2ccccc2)c2ccccc2)cc1`, for which the T/C is 97 % of control (endpoint: median survival time, dose: 1.87 mg/kg/injection, schedule: Q01DX009 (ip), vehicle: Klucel (hydroxypropylcellulose) (HPC), higher = longer survival) and 95 % of control (endpoint: median survival time, dose: 3.75 mg/kg/injection, schedule: Q01DX009 (ip), vehicle: Klucel (hydroxypropylcellulose) (HPC), higher = longer survival).

Consider `O=C(CCBr)N1CCN(C(=O)CCBr)CC1`, for which the T/C is 105 % of control (endpoint: median survival time, dose: 2.5 mg/kg/injection, schedule: Q01DX009 (ip), vehicle: saline with Tween-80, higher = longer survival); 105 % of control (endpoint: median survival time, dose: 5.0 mg/kg/injection, schedule: Q01DX009 (ip), vehicle: saline with Tween-80, higher = longer survival); 109 % of control (endpoint: median survival time, dose: 10.0 mg/kg/injection, schedule: Q01DX009 (ip), vehicle: saline with Tween-80, higher = longer survival); 109 % of control (endpoint: median survival time, dose: 20.0 mg/kg/injection, schedule: Q01DX009 (ip), vehicle: saline with Tween-80, higher = longer survival); 106 % of control (endpoint: median survival time, dose: 40.0 mg/kg/injection, schedule: Q01DX009 (ip), vehicle: saline with Tween-80, higher = longer survival); 102 % of control (endpoint: median survival time, dose: 80.0 mg/kg/injection, schedule: Q01DX009 (ip), vehicle: saline with Tween-80, higher = longer survival).

In the case of `N=C(N)c1ccc(OCCCOc2ccc(C(=N)N)cc2Br)c(Br)c1`, the T/C under setting [3] is 122 % of control.

On to `CC(C)Sc1nc(N)nc2nc[nH]c12`, for which the T/C (endpoint: mean tumor weight, dose: 12.5 mg/kg/injection, schedule: Q01DX011 (ip), vehicle: other, higher = larger tumour) was 75 % of control; the T/C (endpoint: mean tumor weight, dose: 25.0 mg/kg/injection, schedule: Q01DX011 (ip), vehicle: other, higher = larger tumour) was 95 % of control; the T/C (endpoint: mean tumor weight, dose: 50.0 mg/kg/injection, schedule: Q01DX011 (ip), vehicle: other, higher = larger tumour) was 67 % of control; the T/C (endpoint: mean tumor weight, dose: 100.0 mg/kg/injection, schedule: Q01DX011 (ip), vehicle: other, higher = larger tumour) was 48 % of control and 62 % of control; the T/C under setting [4] is 52 % of control; the T/C (endpoint: mean tumor weight, dose: 400.0 mg/kg/injection, schedule: Q01DX011 (ip), vehicle: other, higher = larger tumour) is 30 % of control.

As for `Nc1ncnc2c(C3OC(CO)C(O)C3O)[nH]nc12` (stereo unspecified), for the setting “endpoint: mean tumor weight, dose: 10.5 mg/kg/injection, schedule: Q01DX011 (ip), vehicle: carboxymethylcellulose (CMC), higher = larger tumour”, the T/C was 66 % of control.

`NC(Cc1cc(Cl)c(O)c(Cl)c1)C(=O)O` (stereo unspecified): the T/C is, setting by setting: (endpoint: median survival time, dose: 18.75 mg/kg/injection, schedule: Q01DX009 (ip), vehicle: saline, higher = longer survival) 115 % of control; (endpoint: median survival time, dose: 37.5 mg/kg/injection, schedule: Q01DX009 (ip), vehicle: saline, higher = longer survival) 117 % of control; (endpoint: median survival time, dose: 75.0 mg/kg/injection, schedule: Q01DX009 (ip), vehicle: saline, higher = longer survival) 115 % of control.

In the case of `COC(=O)C(N)CCCCNc1ccc2c(cc1=O)C(NC(C)=O)CCc1cc(OC)c(OC)c(OC)c1-2` (stereo unspecified), the T/C is 100 % of control (endpoint: median survival time, dose: 25.0 mg/kg/injection, schedule: Q02DX009 (ip), vehicle: saline with Tween-80, higher = longer survival) and 94 % of control (endpoint: median survival time, dose: 50.0 mg/kg/injection, schedule: Q02DX009 (ip), vehicle: saline with Tween-80, higher = longer survival).

Regarding `O=C(O)C(=O)O.[U]`, the T/C (endpoint: mean tumor weight, dose: 5.0 mg/kg/injection, schedule: Q01DX011 (ip), vehicle: carboxymethylcellulose (CMC), higher = larger tumour) was 37 % of control; the T/C (endpoint: mean tumor weight, dose: 10.0 mg/kg/injection, schedule: Q01DX011 (ip), vehicle: carboxymethylcellulose (CMC), higher = larger tumour) is 55 % of control and 78 % of control; the T/C under setting [1] was 42 % of control; the T/C (endpoint: mean tumor weight, dose: 20.0 mg/kg/injection, schedule: Q01DX011 (ip), vehicle: saline, higher = larger tumour) was 27 % of control; the T/C (endpoint: median survival time, dose: 4.0 mg/kg/injection, schedule: Q01DX009 (ip), vehicle: Klucel (hydroxypropylcellulose) (HPC), higher = longer survival) was 103 % of control; the T/C (endpoint: median survival time, dose: 16.0 mg/kg/injection, schedule: Q01DX009 (ip), vehicle: Klucel (hydroxypropylcellulose) (HPC), higher = longer survival) is 101 % of control.

In the case of `CCCC1CCC(=C2C(=O)CCC2=O)O1` (stereo unspecified), the T/C (endpoint: median survival time, dose: 3.13 mg/kg/injection, schedule: Q01DX009 (ip), vehicle: saline, higher = longer survival) is 102 % of control; the T/C under setting [3] was 111 % of control; the T/C (endpoint: median survival time, dose: 12.5 mg/kg/injection, schedule: Q01DX009 (ip), vehicle: saline, higher = longer survival) is 105 % of control; the T/C (endpoint: median survival time, dose: 25.0 mg/kg/injection, schedule: Q01DX009 (ip), vehicle: saline, higher = longer survival) is 101 % of control.

For the compound `CCNC1=C(N2CC2)C(=O)C(NCC)=C(N2CC2)C1=O`, the T/C (endpoint: median survival time, dose: 0.37 mg/kg/injection, schedule: Q01DX009 (ip), vehicle: saline, higher = longer survival) is 115 % of control and the T/C (endpoint: median survival time, dose: 0.75 mg/kg/injection, schedule: Q01DX009 (ip), vehicle: saline, higher = longer survival) was 121 % of control.

As to `O=P(Oc1ccccc1)(Oc1ccccc1)c1ccccc1`, the T/C (endpoint: mean tumor weight, dose: 133.0 mg/kg/injection, schedule: Q01DX011 (ip), vehicle: other, higher = larger tumour) was 75 % of control and the T/C under setting [4] was 91 % of control.

`S=P(NCCNP(=S)(N1CC1)N1CC1)(N1CC1)N1CC1`: the T/C under setting [2] is 100 % of control; the T/C (endpoint: median survival time, dose: 12.5 mg/kg/injection, schedule: Q01DX009 (ip), vehicle: Klucel (hydroxypropylcellulose) (HPC), higher = longer survival) was 102 % of control; the T/C (endpoint: median survival time, dose: 25.0 mg/kg/injection, schedule: Q01DX009 (ip), vehicle: Klucel (hydroxypropylcellulose) (HPC), higher = longer survival) was 104 % of control.
